Measurements: patent US9321770B2, “Crystals of pyrroloquinolinequinone sodium salts” (MITSUBISHI GAS CHEMICAL COMPANY, INC., priority 2009, dated 2016)
Counter-ions that a name gives are not always drawn.

Assay: Thermal analysis: thermogravimetry (TG) and differential thermal analysis (DSC)
Assay type: physicochemical
Conditions: under air flow; for thermal stability of the solids (thermal analysis): temperature increased at 10° C./minute
Protocol: The obtained solids were subjected to thermogravimetry (TG) and differential thermal analysis (DSC) using Thermo plus EVO TG8120 manufactured by Rigaku Corporation. The temperature was increased under air flow at a rate of 10° C./minute.

O=C(O)c1cc(C(=O)O)c2c(n1)C(=O)C(=O)c1cc(C(=O)O)[nH]c1-2 [Example 4, pyrroloquinoline quinone trisodium salt]
thermal stability of the solids (thermal analysis) (trisodium salt): very high thermal stability

O=C(O)c1cc(C(=O)O)c2c(n1)C(=O)C(=O)c1cc(C(=O)O)[nH]c1-2 [Comparative Example 1, PQQ disodium salt]
temperature from which reduction in the weight was observed (10° C./minute): about 30 °C | thermal stability of the solids (thermal analysis) (disodium salt): unstable

O=C(O)c1cc(C(=O)O)c2c(n1)C(=O)C(=O)c1cc(C(=O)O)[nH]c1-2 [Example 2, pyrroloquinoline quinone disodium salt]
temperature up to which there was no change (except evaporation of water at about 100° C.) (10° C./minute): 270 °C | thermal stability of the solids (thermal analysis) (disodium salt): very stable

O=C(O)c1cc(C(=O)O)c2c(n1)C(=O)C(=O)c1cc(C(=O)O)[nH]c1-2 [Comparative Example 2, PQQ disodium salt]
thermal stability of the solids (thermal analysis) (disodium salt): low thermal stability
